pIC50: −log10 of the molar value.
Columns and labels:
MDA-MB-231 cells [1] = experiment: Cell proliferation inhibition in breast cancer cell line, BrdU incorporation assay; assay type: cell-based; settings: Homo sapiens, 96 h incubation
Excerpt: In this experiment, ACSL4 inhibition was studied through proliferation inhibition of MDA-MB-231 cells. Human breast cancer cell line MDA-MB-231 was generously provided by Dr. Vasilios Papadoupoulus (Research Institute of the McGill University Health Centre, Montreal, Canada) and obtained from the Lombardi Comprehensive Cancer Center (Georgetown University Medical Center, Washington D.C. USA), validated by ATCC Cell Line Authentication Service as 100% matching to ATCC cell line HTB-26 (MDA-MB-231).
The medium was then changed to serum-free medium.
After 24 h, the cells were switched to 10% FBS-supplemented D-MEM medium and incubated with i) ACSL4 inhibitor A, ii) ACSL4 inhibitor B or iii) rosiglitazone for 96 h.

PC-3 cells = experiment: Cell proliferation inhibition in prostate cancer cell line, BrdU incorporation assay; assay type: cell-based; settings: Homo sapiens, 96 h incubation
Procedure: ACSL4 inhibition was also assessed through proliferation inhibition in the Pc-3 cell line. PC-3 human prostate cancer cell line was generously provided by Dr. Susana Nowicky and validated by ATCC Cell Line Authentication Service as 100% matching to ATCC cell line CRL-1435 (PC-3).
The medium was then changed to serum-free medium. After 24 h, the cells were switched to 10% FBS-supplemented D-MEM medium and incubated with i) ACSL4 inhibitor A, ii) ACSL4 inhibitor B or iii) rosiglitazone for 96 h.

MDA-MB-231 cells [2] = experiment: Migration assay (wound healing); assay type: cell-based, human; settings: for concentration at which differences in wound area were evident: wound healing, 12 h after injury
Procedure: Cellular migration was measured by the wound healing assay. Cells (7×10^5 cells per well) were seeded in six-well plates. Cells were kept in complete (10% FBS) medium. Cell monolayer was wounded with a plastic tip across the monolayer cells. Wound closures were photographed by a phase contrast microscopy (40×) in the time point 4, 8 and 12 h after scraping. The width of the wound was determined with the Image Pro-Plus program.
For the wound healing assay, cells were incubated with either vehicle (control), the compound of the invention (inhibitor A) (50 μM) and Rosiglitazone (200 μM). At the specified time points, the distance between the wound edges was measured using Image-Pro Plus software. Results are shown in FIG. 4A-D. Data represent the mean±SD of three independent experiments.

MA-10 Leydig cells = experiment: Steroidogenesis assay, progesterone production in cAMP-stimulated MA-10 Leydig cells; assay type: cell-based, mouse
Procedure: (§1) In the present example, ACSL4 inhibitor effects on steroid production were tested by stimulating MA 10 Leydig and Y1 adrenal cells with cAMP (0.5 mM) for 1 hour and assessing progesterone levels. MA-10 mouse Leydig tumor cells were generously provided by Dr. Mario Ascoli (University of Iowa, Iowa City, Iowa) and cultured in Waymouth MB/752 medium supplemented with 15% horse serum and antibiotics at 37° C. and 5% CO2 as previously described. The culture medium was replaced with serum-free Waymouth medium before experiments.

Y1 adrenal cells = experiment: Steroidogenesis assay, progesterone production in cAMP-stimulated Y1 adrenal cells; assay type: cell-based, mouse; settings: cAMP 0.5 mM, 1 hour
Procedure: as §1
Murine Y1 adrenocortical tumor cells were generously provided by Dr B Schimmer (University of Toronto, Toronto, Canada). Methods for the culture of Y1 mouse adrenal tumor cells (American Type Culture Collection, Rockville, MD, USA) have been published elsewhere (Schimmer 1979). Cells were maintained at 37 C in growth medium (HAM F10) containing fetal bovine (2·5%) and horse (12·5%) sera.

ACSL4 [3] = molecular target: T1, ACSL4 (Homo sapiens, UniProt O60488); experiment: 3H-arachidonic acid incorporation into MDA-MB-231 cells (ACSL4 activity); assay type: cell-based; settings: serum stimulated
T1 construct: evaluated in MDA-MB-231 cells, in which ACSL4 activity plays a key role in tumor biology; endogenous in cells; host or cells: MDA-MB-231
T1 sequence (O60488 whole entry): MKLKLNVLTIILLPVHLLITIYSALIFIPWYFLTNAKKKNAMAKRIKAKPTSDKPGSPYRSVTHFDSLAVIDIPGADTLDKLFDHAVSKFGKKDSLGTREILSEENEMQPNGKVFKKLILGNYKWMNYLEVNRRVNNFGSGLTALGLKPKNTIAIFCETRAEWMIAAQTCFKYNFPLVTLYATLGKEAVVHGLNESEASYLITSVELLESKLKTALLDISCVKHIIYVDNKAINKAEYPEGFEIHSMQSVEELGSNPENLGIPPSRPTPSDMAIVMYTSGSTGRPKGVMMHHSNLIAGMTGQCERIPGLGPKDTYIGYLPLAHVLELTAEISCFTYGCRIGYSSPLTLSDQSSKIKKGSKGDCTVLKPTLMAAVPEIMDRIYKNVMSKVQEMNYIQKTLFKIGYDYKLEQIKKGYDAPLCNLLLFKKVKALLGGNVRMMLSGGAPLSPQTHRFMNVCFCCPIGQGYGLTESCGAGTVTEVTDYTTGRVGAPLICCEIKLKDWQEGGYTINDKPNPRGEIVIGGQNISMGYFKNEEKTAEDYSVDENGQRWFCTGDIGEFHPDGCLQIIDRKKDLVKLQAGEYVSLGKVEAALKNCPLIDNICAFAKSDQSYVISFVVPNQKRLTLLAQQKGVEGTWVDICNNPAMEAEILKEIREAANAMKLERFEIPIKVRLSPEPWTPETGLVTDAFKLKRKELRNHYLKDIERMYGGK
Procedure: The effects of the ACSL4 inhibitor of the invention were evaluated in MDA-MB-231 cells, in which ACSL4 activity plays a key role in tumor biology.
(§2) ACSL4 activity was determined by measuring the transformation of arachidonic acid (AA) into enzyme product arachidonoyl-CoA (AA CoA), through ^3H-AA incorporation expressed as CPM/10^6 cells×10^−3 with results showing significant ACSL4 inhibition and a consequent significant reduction in AA CoA levels.
ACSL4 activity was stimulated with serum in tumoral cells.

ACSL4 [4] = molecular target: T2, ACSL4 (Mus musculus, UniProt Q9QUJ7); experiment: 3H-arachidonic acid incorporation into MA-10 Leydig cells (ACSL4 activity); assay type: cell-based; settings: cAMP stimulated
T2 construct: evaluated in MA-10 Leydig cells, in which ACSL4 activity plays a key role in steroids synthesis; endogenous in cells; host or cells: MA-10 mouse Leydig tumor cells
T2 sequence (Q9QUJ7 whole entry): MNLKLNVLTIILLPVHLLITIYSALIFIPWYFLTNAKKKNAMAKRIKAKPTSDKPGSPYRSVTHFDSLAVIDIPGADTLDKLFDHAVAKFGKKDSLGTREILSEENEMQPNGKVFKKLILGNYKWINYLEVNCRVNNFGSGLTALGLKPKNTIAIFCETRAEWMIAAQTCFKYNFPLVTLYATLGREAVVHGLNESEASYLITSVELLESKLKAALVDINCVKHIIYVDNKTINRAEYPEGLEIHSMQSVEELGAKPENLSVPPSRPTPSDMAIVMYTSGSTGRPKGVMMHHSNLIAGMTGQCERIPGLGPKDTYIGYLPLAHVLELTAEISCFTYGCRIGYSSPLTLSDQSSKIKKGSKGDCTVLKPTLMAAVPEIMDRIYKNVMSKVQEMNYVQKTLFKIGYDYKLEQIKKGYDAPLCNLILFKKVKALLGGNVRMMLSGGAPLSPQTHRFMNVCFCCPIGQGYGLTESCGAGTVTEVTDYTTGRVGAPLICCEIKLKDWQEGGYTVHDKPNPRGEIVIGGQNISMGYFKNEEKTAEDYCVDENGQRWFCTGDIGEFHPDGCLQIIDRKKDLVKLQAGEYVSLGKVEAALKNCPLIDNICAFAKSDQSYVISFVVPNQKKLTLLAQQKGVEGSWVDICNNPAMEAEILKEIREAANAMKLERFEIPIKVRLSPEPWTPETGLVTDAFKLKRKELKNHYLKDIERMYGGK
Procedure: The effects of the ACSL4 inhibitor of the invention were evaluated in MA-10 Leydig cells, in which ACSL4 activity plays a key role in steroids synthesis.
as §2
ACSL4 activity was stimulated with cAMP.

MDA-MB231 cells = experiment: Tumor growth in chick embryo chorioallantoic membrane (CAM) assay; assay type: in vivo; settings: 100 μM, in ovo, Kruskal-Wallis p<0.0001
Procedure: In this experiment, the in vivo CAM assay platform of IPATIMUP was used to test the effect of inhibitor A to inhibit tumor growth in vivo. The CAMP is a preclinical in vivo model for drug screening.
Chicken eggs in the early phase of breeding are between in vitro and in vivo systems and provide a vascular test environment not only to study angiogenesis but also to study tumorigenesis. Since the lymphoid system is not fully developed until late stages of incubation, the chick embryo serves as a naturally immunodeficient host capable of sustaining grafted tissues and cells without species-specific restrictions.
As previously described, breast cancer MDA-MB231 cell line was used as a cell model to assess tumor cell growth. The effects of the compound were compared to those of the vehicle (DMEM).
The test compound, at the 10 μM and 100 μM, were inoculated together with 0.5×10^6 MDA-MB231 cells into a total of 53 eggs (distributed in two independent experiments), at embryonic development day (EDD) 10. The effects of the compound A were compared to those of the vehicle (DMEM).
Xenografted cells/tumors were treated in ovo on EDD12 and the experiment ended at EDD 14. At the endpoint, CAMs were fixed (with paraformaldehyde), excised from the embryo and photographed ex ovo.
The pictures were used to determine the number of neo vessels growing radially towards the inoculation site. […]

steroid synthesis = experiment: Steroidogenesis in male mice stimulated with hCG; assay type: in vivo, BALB/c mice
Procedure: Thirty-day-old male BALB/c mice were treated with inhibitor A (10-100 μM) i.p at a dose of 50 ul/mice. After 3 hours the animal received a single s.c injection of human Chorionic Gonadotrophin (300 U/mice). After 3 hours the animal were sacrificed and assessed for testosterone, pregnenolone and progesterone levels FIG. 13 A, corticosterone FIG. 13 B and steroids in Pc-3 cell FIG. 13 C.

Solubility = assay type: physicochemical; settings: compared with compound B

pIC50 (MDA-MB-231 cells [1]) | pIC50 (PC-3 cells) | solubility (Solubility) | SMILES | concentration at which differences in wound area were evident (MDA-MB-231 cells [2]) | inhibition of progesterone synthesis (MA-10 Leydig cells) | release of progesterone (MA-10 Leydig cells; 10 μM, control 3.26 ng/ml) | inhibition of cell migration (wound healing) (MDA-MB-231 cells [2]; MDA-MB-231 cells, 50 μM) | minimal concentration significantly inhibiting steroid synthesis (MA-10 Leydig cells; cAMP 0.5 mM, 1 hour, progesterone) | minimal concentration significantly inhibiting steroid synthesis (Y1 adrenal cells) | concentrations for inhibiting ACSL4 activity (3H-AA incorporation) (ACSL4 [3]) | concentrations for inhibiting ACSL4 activity (3H-AA incorporation) (ACSL4 [4]) | tumor growth (tumor area) versus vehicle (MDA-MB231 cells) | minimal concentration significantly inhibiting steroid synthesis (steroid synthesis; i.p. 50 ul/mice, hCG stimulation (Example 12)) | dose at which there was already response in inhibiting steroidogenesis (steroid synthesis; in vivo experiment in mice, FIG. 13 A)
3.74 | 4.00 |  | CN(CCOc1ccc(CC2SC(=O)NC2=O)cc1)c1ccccn1 (centres unmarked) [Rosiglitazone, reference compound] | 200 µM |  |  |  |  |  |  |  |  |  | 
 |  |  | CCC/C=C/C/C=C/C=C/C=N/NN=O [Triacsin C] |  | failed to inhibit progesterone synthesis | 46.5 ng/mL |  |  |  |  |  |  |  | 
4.64 | 4.57 | higher than the solubility of compound B | CC(=O)NC1=Nc2nc3ccccc3n2C(c2cn(-c3ccccc3)nc2-c2ccc(C)o2)N1 (centres unmarked) [inhibitor A, N-(4-(3-(5-methylfuran-2-yl)-1-phenyl-1H-pyrazol-4-yl)-3,4-dihydrobenzo[4,5]imidazo[1,2-a][1,3,5]triazin-2-yl)acetamide] | 50 µM |  |  | succeeded in inhibiting the migration | 5 µM | 5 µM | lower than those required for rosiglitazone | lower than those required for rosiglitazone | Significant statistical differences | 25 µM | 10 µM
4.35 | 4.32 |  | Cc1ccc(-c2nn(-c3ccccc3)cc2C2NC(N)=Nc3nc4ccccc4n32)o1 (centres unmarked) [inhibitor B, 4-(3-(5-methylfuran-2-yl)-1-phenyl-1H-pyrazol-4-yl)-3,4-dihydrobenzo[4,5]imidazo[1,2-a][1,3,5]triazin-2-amine] | 100 µM |  |  |  |  |  |  |  |  |  | 

Reference: patent US12280059B2, “Acyl-CoA synthetase 4 (ACSL4) inhibitory compound” (CONSEJO NACIONAL DE INVESTIGACIONES CIENTÍFICAS Y TÉCNICAS …, priority 2019, dated 2025)
